{"source": "patent US20240415120A1", "about": "“BINARY BIOHERBICIDE COMPRISING PELARGONIC ACID” (YPF TECNOLOGÍA S.A., priority 2023, published 2024)", "key": {"[1]": {"test_system": "Amaranthus hybridus", "experiment": "Pre-emergence germination assay in Petri dishes", "assay_type": "in vivo", "settings": "168 h, A. hybridus, after 7 days of exposure, combined concentration of both active ingredients, read-out: Germination IC50 (Confidence limit 95%)", "description": "(§1) Aqueous extracts containing binary mixtures of formulations: F1 (citral+pelargonic acid) and F2 (thymoquinone+pelargonic acid), in both cases with a 1:1 ratio between the active compounds and with the addition of an emulsifier (soy lecithin at 35% w/w, YPF Agro, 2022) at 0.2% v/v, were tested in Petri dishes following the methodology disclosed in U.S. Pat. No. 11,083,197, with some modifications. […] The extracts were placed onto 9-cm diameter paper disks in Petri dishes. Then, ten seeds of each species were placed onto paper disks. Subsequently, the dishes were closed under the following experimental conditions: room temperature, 26.0±1.8° C.; relative humidity, 50±9.7%; and photoperiod, 12:12. The seeds were considered germinated if their roots were longer than 1 mm. Aqueous extracts without the addition of the bioactive formulation were used as negative control, whereas atrazine was used as positive control. The assays were performed in triplicates for each concentration.\n(§2) The IC50 were obtained using the software POLO PLUS (LeOra Software Company).\n(§3) An aqueous extract comprising the emulsifier used in Example 1 at 0.2% w/w was prepared and seeds of different species were exposed to the extract following a methodology as the one used in Example 1. Pure water was used as a negative control."}, "[2]": {"test_system": "Lolium multiflorum", "experiment": "Pre-emergence germination assay in Petri dishes", "assay_type": "in vivo", "settings": "168 h, L. multiflorum, after 7 days of exposure, combined concentration of both active ingredients, read-out: Germination IC50 (Confidence limit 95%)", "description": "as §1, §2, §3"}, "[3]": {"test_system": "Solanum lycopersicum", "experiment": "Pre-emergence germination assay in Petri dishes", "assay_type": "in vivo", "settings": "168 h, S. lycopersicum, after 7 days of exposure, combined concentration of both active ingredients, read-out: Germination IC50 (Confidence limit 95%)", "description": "as §1, §2, §3"}, "[4]": {"test_system": "seedlings of A. hybridus", "experiment": "Early post-emergence damage to photosystem II (Fv/Fm fluorometry)", "assay_type": "in vivo, Amaranthus hybridus", "settings": "5 mM", "description": "• Plant material and culturing conditions Seeds of Amaranthus hybridus were sown on plastic boxes of 15.5×11×4 cm with moist absorbing paper (25 seeds per box). The boxes were placed in a culture chamber at 22° C. and 50 μmol photons m^−2 s^−1 with a photoperiod of 16 hours. […] The application volume for each treatment was 10 ml per box on the absorbing paper. After 7 days post-application, to avoid possible chlorosis symptoms due to a lack of nutrients, 5 ml of nutritive solution were added to each box, with the following formulation: 5.0 mM Ca(NO3)2, 5.0 mM KNO3, 2.0 mM MgSO4, 1.0 mM KH2PO4, 20.0 μM FeNaEDTA, 5.0 μM H3BO3, 0.9 μM MnCl2, 0.8 μM ZnCl2, 0.3 μM CuSO4 y 0.01 μM Na2MoO4, pH 5.5-6.5. The experiments were finished 12 days post-application.\nThe tested formulations were F1 and F2, both at 5 mM. […]\nThe objective was to assess the early post-emergence effect of the tested formulations on seedlings of A. hybridus of 7 days post-sowing. At 1, 2, 5, 7 and 12 days post-application the fluorometry measurements (Fv/Fm) were carried out to ascertain the damage to photosystem II, and the plants with bleaching or chlorosis symptoms were counted. […]\nFor the experiments, three boxes per treatment were used: both experiments had 5 treatments. Each experiment was repeated 3 times (assays 1, 2 and 3), and each assay was analyzed separately. […]"}, "[5]": {"test_system": "Pseudomonas monteilii", "experiment": "Effect on growth-promoting bacteria in liquid culture", "assay_type": "cell-based", "settings": "C + N 5 mM combined; F3, F4, F5 0.5% v/v; atrazine 5 mM; LB medium, 32° C.; Gompertz model", "description": "To evaluate the effect of the compositions prepared in Example 6 on growth-promoting bacteria, a model strain of Pseudomonas monteilii was used. The microorganism was inoculated in liquid LB medium (initial optical density at 600 nm=0.1), and incubated in Erlenmeyer flasks at 32° C., 180 rpm. The effect of the active compounds (citral (C)+pelargonic acid (N), at a combined concentration of 5 mM), F3, F4 and F5 (all three at 0.5% v/v) and atrazine (5 mM) was assessed by adding each treatment to the culture medium at the moment of inoculation. The positive growth control was performed without adding any compound. Liquid samples were taken during the growth, and the biomass of the cultures was evaluated using the drop plate method described by Herigstad et al. (2001). Three repetitions were carried out in different times and the results were analyzed with the software Statistica (StatSoft, 2007) to adjust them to the Gompertz model, and thus calculate the growth parameters."}}}
{"smiles": "CCNc1nc(Cl)nc(NC(C)C)n1", "note": "[Atrazine, atrazine]", "values": [{"measurement": "IC50", "setting": "[1]", "result": 41, "unit": "mM"}, {"measurement": "IC50", "setting": "[2]", "result": 39, "unit": "mM"}, {"measurement": "IC50", "setting": "[3]", "result": 37.5, "unit": "mM"}, {"measurement": "Course of Fv/Fm values", "setting": "[4]; day 1 to 12 days post-application", "result": "gradual fall in the Fv/Fm values from day 1 until reaching minimum or non-measurable values at 12 days"}, {"measurement": "Effects on photosystem II in comparison to treatments F1 and F2", "setting": "[4]; every assay", "result": "lower effects"}, {"measurement": "Duplication time", "setting": "[5]", "result": 22.03, "unit": "min"}, {"measurement": "Lag pase length", "setting": "[5]", "result": 1.3, "unit": "h"}, {"measurement": "maximum growth rate μmax", "setting": "[5]", "result": 1.89, "unit": "h⁻¹"}]}
